Publication PMC8433807, “Scaffold Repurposing of In-House Small Molecule Candidates Leads to Discovery of First-in-Class CDK-1/HER-2 Dual Inhibitors: In Vitro and In Silico Screening” (Molecules, 2021)

Legend:
[1] = biological target: T1, CDK-1/cyclin B (Homo sapiens, UniProt P06493); experiment: Kinase HotSpot activity assay, single dose in duplicate; assay type: biochemical; details: 10 µM; 10 μM compound; 10 μM ATP; value is residual kinase activity, not inhibition
T1 construct: gene CDK1; Reaction Biology Corp. Kinase HotSpot service; with G2/mitotic-specific cyclin-B1

[2] = biological target: T2, HER-2 (Homo sapiens, UniProt P04626); experiment: as above; assay type: biochemical; details: 10 µM; 10 μM compound; 10 μM ATP; value is residual kinase activity, not inhibition
T2 construct: gene ERBB2; Reaction Biology Corp. Kinase HotSpot service
T2 sequence (P04626 676-1255 limits assumed): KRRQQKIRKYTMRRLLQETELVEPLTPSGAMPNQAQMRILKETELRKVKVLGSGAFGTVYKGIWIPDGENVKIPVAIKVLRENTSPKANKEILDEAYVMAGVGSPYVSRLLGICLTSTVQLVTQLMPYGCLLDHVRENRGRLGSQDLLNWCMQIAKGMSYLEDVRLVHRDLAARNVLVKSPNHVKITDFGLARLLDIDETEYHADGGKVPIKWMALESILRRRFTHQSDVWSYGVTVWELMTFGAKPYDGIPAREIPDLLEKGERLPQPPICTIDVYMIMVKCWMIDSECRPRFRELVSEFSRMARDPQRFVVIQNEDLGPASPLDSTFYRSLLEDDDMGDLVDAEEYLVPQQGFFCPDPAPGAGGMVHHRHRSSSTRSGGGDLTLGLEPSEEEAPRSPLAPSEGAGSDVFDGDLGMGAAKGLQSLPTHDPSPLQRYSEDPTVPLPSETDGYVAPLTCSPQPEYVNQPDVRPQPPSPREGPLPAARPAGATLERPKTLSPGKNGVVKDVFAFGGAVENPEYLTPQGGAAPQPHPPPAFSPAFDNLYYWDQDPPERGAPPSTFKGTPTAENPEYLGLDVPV

T1 sequence (P06493 whole entry): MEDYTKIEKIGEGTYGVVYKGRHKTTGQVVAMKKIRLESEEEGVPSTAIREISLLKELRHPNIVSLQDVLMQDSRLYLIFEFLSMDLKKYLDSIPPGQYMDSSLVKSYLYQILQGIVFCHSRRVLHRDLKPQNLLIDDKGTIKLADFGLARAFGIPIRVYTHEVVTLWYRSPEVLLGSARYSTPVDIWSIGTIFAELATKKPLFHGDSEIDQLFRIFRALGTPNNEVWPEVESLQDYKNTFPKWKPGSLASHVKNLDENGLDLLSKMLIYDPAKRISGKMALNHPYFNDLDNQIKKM
T1 sequence (P14635 whole entry partner): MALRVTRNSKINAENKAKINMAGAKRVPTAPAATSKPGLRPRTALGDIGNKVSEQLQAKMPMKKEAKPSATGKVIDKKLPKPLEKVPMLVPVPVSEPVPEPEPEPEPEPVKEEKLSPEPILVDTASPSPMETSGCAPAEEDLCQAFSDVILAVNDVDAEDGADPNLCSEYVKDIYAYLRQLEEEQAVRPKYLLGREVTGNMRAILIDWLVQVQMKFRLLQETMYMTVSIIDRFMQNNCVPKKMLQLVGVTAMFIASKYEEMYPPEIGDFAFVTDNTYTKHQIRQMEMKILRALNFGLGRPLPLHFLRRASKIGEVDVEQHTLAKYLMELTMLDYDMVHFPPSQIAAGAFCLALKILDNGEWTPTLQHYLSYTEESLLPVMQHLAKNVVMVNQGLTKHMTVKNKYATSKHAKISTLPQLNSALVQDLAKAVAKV

O=C(Nc1ccc2c(ccn2C(=O)c2cccc(F)c2)c1)c1ccnnc1 [15l] was tested, and the “% Activity / CDK-1/cyclin B” value [1] was 51% and the “% Activity / HER-2” value [2] was 52%.
